Read-outs that look alike come from different tables or passages of the source. Where a SMILES comes first, the peptide text is derived from it. Bridges are numbered along the chain shown (N, C = ends). [ ]: non-standard residue; d: D form. NMeF = CN[C@@H](Cc1ccccc1)C(=O)O; dHyp = O=C(O)[C@H]1C[C@H](O)CN1; NMeNle = CCCC[C@H](NC)C(=O)O; dPip = O=C(O)[C@H]1CCCCN1; dThz = O=C(O)[C@H]1CSCN1; Dap = NC[C@H](N)C(=O)O; Sar = CNCC(=O)O

The assay deals with T1, Human PD-L1/PD-1 (Homo sapiens, UniProt Q9NZQ7).
T1 construct: TVMV protease cleavage site (C); made in house; host or cells: HEK293T cells
Description: HTRF Human PD-L1/PD-1 binding assay (PD-1-Ig/PD-L1-His). Particulars: PD-L1-His 10 nM, PD-1-Ig 20 nM. A digest of the protocol: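 Inhibitors were preincubated 15 min with human PD-L1(18-239)-His (10 nM final), then PD-1(25-167)-Ig (20 nM final) was added for 15 min in dPBS/0.1% BSA/0.05% Tween-20. Eu-cryptate anti-Ig (1 nM) and APC anti-His (20 nM) were added; 665/620 nm ratio read after 30 min.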
Background: TR-FRET usually uses a lanthanide donor and a delayed reading to cut background.

Setting [1] is: class symbol, read-out: HTRF Human PD-L1/PD-1 Binding Assay IC50 Range.

T1 sequence (Q9NZQ7 with tags, fused parts or gaps): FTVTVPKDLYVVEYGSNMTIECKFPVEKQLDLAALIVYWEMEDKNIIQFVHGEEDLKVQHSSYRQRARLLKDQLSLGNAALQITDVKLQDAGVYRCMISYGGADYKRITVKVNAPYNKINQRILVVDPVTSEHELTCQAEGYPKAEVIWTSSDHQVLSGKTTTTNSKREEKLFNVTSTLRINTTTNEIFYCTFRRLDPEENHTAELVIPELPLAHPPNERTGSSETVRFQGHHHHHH

Take `CCCC[C@H]1C(=O)N2CSC[C@@H]2C(=O)N[C@@H](CC(N)=O)C(=O)N[C@@H](C(C)C)C(=O)N(C)[C@@H](Cc2ccccc2)C(=O)N[C@@H](Cc2ccc(O)cc2)C(=O)N2CCC[C@@H]2C(=O)N[C@@H](Cc2c[nH]c3ccccc23)C(=O)N[C@@H](Cc2ccc(O)cc2)C(=O)N[C@@H](CC(C)C)C(=O)N[C@H](C(=O)NCC(N)=O)CSCC(=O)N[C@@H](Cc2ccccc2)C(=O)N(C)[C@@H](Cc2ccccc2)C(=O)N1C` [Example 10073] ({CH2CO}-F[NMeF][NMeNle][dThz]NV[NMeF]Y[dP]WYLCG-NH2; thioether N-13): the IC50 under setting [1] fell in the range of 10 to 99.9 nM.
Still for that read-out and setting: as for `CCCC[C@H]1C(=O)N2CSC[C@@H]2C(=O)N[C@@H](CO)C(=O)N[C@@H](C(C)C)C(=O)N(C)[C@@H](Cc2ccccc2)C(=O)N[C@@H](Cc2ccc(O)cc2)C(=O)N2CCC[C@@H]2C(=O)N[C@@H](Cc2c[nH]c3ccccc23)C(=O)N[C@@H](Cc2ccc(O)cc2)C(=O)N[C@@H](CC(C)C)C(=O)N[C@H](C(=O)NCC(N)=O)CSCC(=O)N[C@@H](Cc2ccccc2)C(=O)N(C)[C@@H](Cc2ccccc2)C(=O)N1C` [Example 10074] ({CH2CO}-F[NMeF][NMeNle][dThz]SV[NMeF]Y[dP]WYLCG-NH2; thioether N-13), the figure is 10 to 99.9 nM; as for `CCCC[C@H]1C(=O)N2CSC[C@@H]2C(=O)N[C@@H](CN)C(=O)N[C@@H](C(C)C)C(=O)N(C)[C@@H](Cc2ccccc2)C(=O)N[C@@H](Cc2ccc(O)cc2)C(=O)N2CCC[C@@H]2C(=O)N[C@@H](Cc2c[nH]c3ccccc23)C(=O)N[C@@H](Cc2ccc(O)cc2)C(=O)N[C@@H](CC(C)C)C(=O)N[C@H](C(=O)NCC(N)=O)CSCC(=O)N[C@@H](Cc2ccccc2)C(=O)N(C)[C@@H](Cc2ccccc2)C(=O)N1C` [Example 10075] ({CH2CO}-F[NMeF][NMeNle][dThz][Dap]V[NMeF]Y[dP]WYLCG-NH2; thioether N-13), 10 to 99.9 nM.
For `CCCC[C@H]1C(=O)N2CCC[C@@H]2C(=O)N[C@@H](CC(=O)O)C(=O)N[C@@H](C)C(=O)N(C)[C@@H](Cc2ccccc2)C(=O)N[C@@H](Cc2ccc(O)cc2)C(=O)N2CCC[C@@H]2C(=O)N[C@@H](Cc2c[nH]c3ccccc23)C(=O)N[C@@H](Cc2ccc(O)cc2)C(=O)N[C@@H](CC(C)C)C(=O)N[C@H](C(=O)NCC(N)=O)CSCC(=O)N[C@@H](Cc2ccccc2)C(=O)N(C)[C@@H](Cc2ccccc2)C(=O)N1C` [Example 10076] ({CH2CO}-F[NMeF][NMeNle][dP]DA[NMeF]Y[dP]WYLCG-NH2; thioether N-13), under setting [1], the IC50 fell in the range of 10 to 99.9 nM.
For `CCCC[C@H]1C(=O)N2CSC[C@@H]2C(=O)N[C@@H](CC(=O)O)C(=O)N[C@@H](C)C(=O)N(C)[C@@H](Cc2ccccc2)C(=O)N[C@@H](Cc2ccc(O)cc2)C(=O)N2CSC[C@@H]2C(=O)N[C@@H](Cc2c[nH]c3ccccc23)C(=O)N[C@@H](Cc2ccc(O)cc2)C(=O)N[C@@H](CC(C)C)C(=O)N[C@H](C(=O)NCC(N)=O)CSCC(=O)N[C@@H](Cc2ccccc2)C(=O)N(C)[C@@H](Cc2ccccc2)C(=O)N1C` [Example 10078] ({CH2CO}-F[NMeF][NMeNle][dThz]DA[NMeF]Y[dThz]WYLCG-NH2; thioether N-13), the IC50 under setting [1] lay in the range of 10 to 99.9 nM.
For the compound `CCCC[C@H]1C(=O)N2C[C@@H](O)C[C@@H]2C(=O)N[C@@H](CC(=O)O)C(=O)N[C@@H](C)C(=O)N(C)[C@@H](Cc2ccccc2)C(=O)N[C@@H](Cc2ccc(O)cc2)C(=O)N2C[C@@H](O)C[C@@H]2C(=O)N[C@@H](Cc2c[nH]c3ccccc23)C(=O)N[C@@H](Cc2ccc(O)cc2)C(=O)N[C@@H](CC(C)C)C(=O)N[C@H](C(=O)NCC(N)=O)CSCC(=O)N[C@@H](Cc2ccccc2)C(=O)N(C)[C@@H](Cc2ccccc2)C(=O)N1C` [Example 10079] ({CH2CO}-F[NMeF][NMeNle][dHyp]DA[NMeF]Y[dHyp]WYLCG-NH2; thioether N-13), the IC50 under setting [1] lay within 10 to 99.9 nM.
Still for that read-out and setting: with `CCCC[C@H]1C(=O)N(C)CC(=O)N[C@@H](CC(=O)O)C(=O)N[C@@H](C)C(=O)N(C)[C@@H](Cc2ccccc2)C(=O)N[C@@H](Cc2ccc(O)cc2)C(=O)N2CCC[C@@H]2C(=O)N[C@@H](Cc2c[nH]c3ccccc23)C(=O)N[C@@H](Cc2ccc(O)cc2)C(=O)N[C@@H](CC(C)C)C(=O)N[C@H](C(=O)NCC(N)=O)CSCC(=O)N[C@@H](Cc2ccccc2)C(=O)N(C)[C@@H](Cc2ccccc2)C(=O)N1C` [Example 10080] ({CH2CO}-F[NMeF][NMeNle][Sar]DA[NMeF]Y[dP]WYLCG-NH2; thioether N-13) the figure was 10 to 99.9 nM.
Regarding `CCCC[C@H]1C(=O)N(C)CC(=O)N[C@@H](CC(=O)O)C(=O)N[C@@H](C)C(=O)N(C)[C@@H](Cc2ccccc2)C(=O)N[C@@H](Cc2ccc(O)cc2)C(=O)N2CCCC[C@@H]2C(=O)N[C@@H](Cc2c[nH]c3ccccc23)C(=O)N[C@@H](Cc2ccc(O)cc2)C(=O)N[C@@H](CC(C)C)C(=O)N[C@H](C(=O)NCC(N)=O)CSCC(=O)N[C@@H](Cc2ccccc2)C(=O)N(C)[C@@H](Cc2ccccc2)C(=O)N1C` [Example 10081] ({CH2CO}-F[NMeF][NMeNle][Sar]DA[NMeF]Y[dPip]WYLCG-NH2; thioether N-13), the IC50 under setting [1] is 10 to 99.9 nM.
In the case of `CCCC[C@H]1C(=O)N(C)CC(=O)N[C@@H](CC(=O)O)C(=O)N[C@@H](C)C(=O)N(C)[C@@H](Cc2ccccc2)C(=O)N[C@@H](Cc2ccc(O)cc2)C(=O)N2CSC[C@@H]2C(=O)N[C@@H](Cc2c[nH]c3ccccc23)C(=O)N[C@@H](Cc2ccc(O)cc2)C(=O)N[C@@H](CC(C)C)C(=O)N[C@H](C(=O)NCC(N)=O)CSCC(=O)N[C@@H](Cc2ccccc2)C(=O)N(C)[C@@H](Cc2ccccc2)C(=O)N1C` [Example 10082] ({CH2CO}-F[NMeF][NMeNle][Sar]DA[NMeF]Y[dThz]WYLCG-NH2; thioether N-13), under setting [1], the IC50 is 100 to 990 nM.
In the case of `CCCC[C@H]1C(=O)N(C)CC(=O)N[C@@H](CC(=O)O)C(=O)N[C@@H](C)C(=O)N(C)[C@@H](Cc2ccccc2)C(=O)N[C@@H](Cc2ccc(O)cc2)C(=O)N2C[C@@H](O)C[C@@H]2C(=O)N[C@@H](Cc2c[nH]c3ccccc23)C(=O)N[C@@H](Cc2ccc(O)cc2)C(=O)N[C@@H](CC(C)C)C(=O)N[C@H](C(=O)NCC(N)=O)CSCC(=O)N[C@@H](Cc2ccccc2)C(=O)N(C)[C@@H](Cc2ccccc2)C(=O)N1C` [Example 10083] ({CH2CO}-F[NMeF][NMeNle][Sar]DA[NMeF]Y[dHyp]WYLCG-NH2; thioether N-13), the IC50 (read-out: HTRF Human PD-L1/PD-1 Binding Assay IC50) was 158 nM.
Turning to `CCCC[C@H]1C(=O)N2CCCC[C@@H]2C(=O)N[C@@H](CC(=O)O)C(=O)N[C@@H](C)C(=O)N(C)[C@@H](Cc2ccccc2)C(=O)N[C@@H](Cc2ccc(O)cc2)C(=O)N(C)CC(=O)N[C@@H](Cc2c[nH]c3ccccc23)C(=O)N[C@@H](Cc2ccc(O)cc2)C(=O)N[C@@H](CC(C)C)C(=O)N[C@H](C(=O)NCC(N)=O)CSCC(=O)N[C@@H](Cc2ccccc2)C(=O)N(C)[C@@H](Cc2ccccc2)C(=O)N1C` [Example 10084] ({CH2CO}-F[NMeF][NMeNle][dPip]DA[NMeF]Y[Sar]WYLCG-NH2; thioether N-13), under setting [1], the IC50 lay within 100 to 990 nM.
In the case of `CCCC[C@H]1C(=O)N2CSC[C@@H]2C(=O)N[C@@H](CC(=O)O)C(=O)N[C@@H](C)C(=O)N(C)[C@@H](Cc2ccccc2)C(=O)N[C@@H](Cc2ccc(O)cc2)C(=O)N(C)CC(=O)N[C@@H](Cc2c[nH]c3ccccc23)C(=O)N[C@@H](Cc2ccc(O)cc2)C(=O)N[C@@H](CC(C)C)C(=O)N[C@H](C(=O)NCC(N)=O)CSCC(=O)N[C@@H](Cc2ccccc2)C(=O)N(C)[C@@H](Cc2ccccc2)C(=O)N1C` [Example 10085] ({CH2CO}-F[NMeF][NMeNle][dThz]DA[NMeF]Y[Sar]WYLCG-NH2; thioether N-13), the IC50 under setting [1] fell in the range of 100 to 990 nM.
Still for that read-out and setting: as for `CCCC[C@H]1C(=O)N2C[C@@H](O)C[C@@H]2C(=O)N[C@@H](CC(=O)O)C(=O)N[C@@H](C)C(=O)N(C)[C@@H](Cc2ccccc2)C(=O)N[C@@H](Cc2ccc(O)cc2)C(=O)N(C)CC(=O)N[C@@H](Cc2c[nH]c3ccccc23)C(=O)N[C@@H](Cc2ccc(O)cc2)C(=O)N[C@@H](CC(C)C)C(=O)N[C@H](C(=O)NCC(N)=O)CSCC(=O)N[C@@H](Cc2ccccc2)C(=O)N(C)[C@@H](Cc2ccccc2)C(=O)N1C` [Example 10086] ({CH2CO}-F[NMeF][NMeNle][dHyp]DA[NMeF]Y[Sar]WYLCG-NH2; thioether N-13), the figure is 10 to 99.9 nM; as for `CCCC[C@H]1C(=O)N2CCC[C@@H]2C(=O)N[C@@H](CC(=O)O)C(=O)N[C@@H](C)C(=O)N(C)[C@@H](Cc2ccccc2)C(=O)N[C@@H](Cc2ccc(O)cc2)C(=O)N2CCCC[C@@H]2C(=O)N[C@@H](Cc2c[nH]c3ccccc23)C(=O)N[C@@H](Cc2ccc(O)cc2)C(=O)N[C@@H](CC(C)C)C(=O)N[C@H](C(=O)NCC(N)=O)CSCC(=O)N[C@@H](Cc2ccccc2)C(=O)N(C)[C@@H](Cc2ccccc2)C(=O)N1C` [Example 10087] ({CH2CO}-F[NMeF][NMeNle][dP]DA[NMeF]Y[dPip]WYLCG-NH2; thioether N-13), 10 to 99.9 nM; as for `CCCC[C@H]1C(=O)N2CCC[C@@H]2C(=O)N[C@@H](CC(=O)O)C(=O)N[C@@H](C)C(=O)N(C)[C@@H](Cc2ccccc2)C(=O)N[C@@H](Cc2ccc(O)cc2)C(=O)N2CSC[C@@H]2C(=O)N[C@@H](Cc2c[nH]c3ccccc23)C(=O)N[C@@H](Cc2ccc(O)cc2)C(=O)N[C@@H](CC(C)C)C(=O)N[C@H](C(=O)NCC(N)=O)CSCC(=O)N[C@@H](Cc2ccccc2)C(=O)N(C)[C@@H](Cc2ccccc2)C(=O)N1C` [Example 10088] ({CH2CO}-F[NMeF][NMeNle][dP]DA[NMeF]Y[dThz]WYLCG-NH2; thioether N-13), 10 to 99.9 nM.

These data come from patent US10538555B2, “Macrocyclic inhibitors of the PD-1/PD-L1 and CD80(B7-1)/PD-L1 protein/protein interactions” (BRISTOL-MYERS SQUIBB COMPANY, priority 2014, dated 2020).
